Reference: ChEMBL document CHEMBL1201862, “PubChem BioAssay data set” (2004)
Active and inactive are the calls of the source.

Experiments:
[1] = inhibitors of Bluetongue virus cytopathic effect, confirmation, arbovirus, BSR cells (AID 1250); assay type: functional;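 also: protection from viral cytopathic effect measured as cell viability by ATP luminescence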
[2] = target: Cytochrome P450 3A4 (Homo sapiens, UniProt P08684);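 also: CYP3A4 tested as one member of a cytochrome P450 panel screen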
[3] = system: Trypanosoma cruzi; test: growth inhibition of intracellular Trypanosoma cruzi, dose response, cell-based, plate reader, dry powder, set 3 (AID 493197); assay type: functional
[4] = target: Photoreceptor-specific nuclear receptor (Homo sapiens, UniProt Q9Y5X4); assay type: functional;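 also: potency for compounds that break the NR2E3 corepressor complex and count as activators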
Chain of Photoreceptor-specific nuclear receptor (Q9Y5X4 whole entry): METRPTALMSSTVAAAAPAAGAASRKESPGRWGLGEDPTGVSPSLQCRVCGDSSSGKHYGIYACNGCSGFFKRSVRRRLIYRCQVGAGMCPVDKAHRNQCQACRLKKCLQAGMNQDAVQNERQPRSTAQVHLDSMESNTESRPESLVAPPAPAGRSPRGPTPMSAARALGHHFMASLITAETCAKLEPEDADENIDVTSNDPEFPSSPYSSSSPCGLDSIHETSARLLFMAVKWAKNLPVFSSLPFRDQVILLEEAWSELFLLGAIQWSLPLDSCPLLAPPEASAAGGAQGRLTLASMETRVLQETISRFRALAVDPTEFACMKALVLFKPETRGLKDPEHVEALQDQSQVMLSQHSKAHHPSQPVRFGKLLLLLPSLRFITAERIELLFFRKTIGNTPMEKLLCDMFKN

[5] = target: Peroxisome proliferator-activated receptor gamma/Nuclear receptor corepressor 2 (Homo sapiens, UniProt P37231+Q9Y618); assay type: functional
Chain of Peroxisome proliferator-activated receptor gamma/Nuclear receptor corepressor 2 (P37231 whole entry): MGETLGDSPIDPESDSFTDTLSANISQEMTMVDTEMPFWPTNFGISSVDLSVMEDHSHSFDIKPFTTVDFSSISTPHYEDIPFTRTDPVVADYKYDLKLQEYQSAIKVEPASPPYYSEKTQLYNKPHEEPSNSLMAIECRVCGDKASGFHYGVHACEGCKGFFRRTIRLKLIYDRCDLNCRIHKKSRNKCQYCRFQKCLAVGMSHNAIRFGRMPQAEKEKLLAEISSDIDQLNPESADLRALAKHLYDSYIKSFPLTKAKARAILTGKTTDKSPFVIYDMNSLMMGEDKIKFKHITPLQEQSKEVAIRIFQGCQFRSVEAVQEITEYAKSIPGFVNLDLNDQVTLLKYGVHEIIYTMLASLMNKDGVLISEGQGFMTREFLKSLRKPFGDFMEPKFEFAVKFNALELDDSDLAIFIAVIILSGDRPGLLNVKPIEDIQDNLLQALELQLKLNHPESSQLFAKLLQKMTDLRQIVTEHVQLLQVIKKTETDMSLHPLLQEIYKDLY
Chain of Peroxisome proliferator-activated receptor gamma/Nuclear receptor corepressor 2 (Q9Y618 whole entry): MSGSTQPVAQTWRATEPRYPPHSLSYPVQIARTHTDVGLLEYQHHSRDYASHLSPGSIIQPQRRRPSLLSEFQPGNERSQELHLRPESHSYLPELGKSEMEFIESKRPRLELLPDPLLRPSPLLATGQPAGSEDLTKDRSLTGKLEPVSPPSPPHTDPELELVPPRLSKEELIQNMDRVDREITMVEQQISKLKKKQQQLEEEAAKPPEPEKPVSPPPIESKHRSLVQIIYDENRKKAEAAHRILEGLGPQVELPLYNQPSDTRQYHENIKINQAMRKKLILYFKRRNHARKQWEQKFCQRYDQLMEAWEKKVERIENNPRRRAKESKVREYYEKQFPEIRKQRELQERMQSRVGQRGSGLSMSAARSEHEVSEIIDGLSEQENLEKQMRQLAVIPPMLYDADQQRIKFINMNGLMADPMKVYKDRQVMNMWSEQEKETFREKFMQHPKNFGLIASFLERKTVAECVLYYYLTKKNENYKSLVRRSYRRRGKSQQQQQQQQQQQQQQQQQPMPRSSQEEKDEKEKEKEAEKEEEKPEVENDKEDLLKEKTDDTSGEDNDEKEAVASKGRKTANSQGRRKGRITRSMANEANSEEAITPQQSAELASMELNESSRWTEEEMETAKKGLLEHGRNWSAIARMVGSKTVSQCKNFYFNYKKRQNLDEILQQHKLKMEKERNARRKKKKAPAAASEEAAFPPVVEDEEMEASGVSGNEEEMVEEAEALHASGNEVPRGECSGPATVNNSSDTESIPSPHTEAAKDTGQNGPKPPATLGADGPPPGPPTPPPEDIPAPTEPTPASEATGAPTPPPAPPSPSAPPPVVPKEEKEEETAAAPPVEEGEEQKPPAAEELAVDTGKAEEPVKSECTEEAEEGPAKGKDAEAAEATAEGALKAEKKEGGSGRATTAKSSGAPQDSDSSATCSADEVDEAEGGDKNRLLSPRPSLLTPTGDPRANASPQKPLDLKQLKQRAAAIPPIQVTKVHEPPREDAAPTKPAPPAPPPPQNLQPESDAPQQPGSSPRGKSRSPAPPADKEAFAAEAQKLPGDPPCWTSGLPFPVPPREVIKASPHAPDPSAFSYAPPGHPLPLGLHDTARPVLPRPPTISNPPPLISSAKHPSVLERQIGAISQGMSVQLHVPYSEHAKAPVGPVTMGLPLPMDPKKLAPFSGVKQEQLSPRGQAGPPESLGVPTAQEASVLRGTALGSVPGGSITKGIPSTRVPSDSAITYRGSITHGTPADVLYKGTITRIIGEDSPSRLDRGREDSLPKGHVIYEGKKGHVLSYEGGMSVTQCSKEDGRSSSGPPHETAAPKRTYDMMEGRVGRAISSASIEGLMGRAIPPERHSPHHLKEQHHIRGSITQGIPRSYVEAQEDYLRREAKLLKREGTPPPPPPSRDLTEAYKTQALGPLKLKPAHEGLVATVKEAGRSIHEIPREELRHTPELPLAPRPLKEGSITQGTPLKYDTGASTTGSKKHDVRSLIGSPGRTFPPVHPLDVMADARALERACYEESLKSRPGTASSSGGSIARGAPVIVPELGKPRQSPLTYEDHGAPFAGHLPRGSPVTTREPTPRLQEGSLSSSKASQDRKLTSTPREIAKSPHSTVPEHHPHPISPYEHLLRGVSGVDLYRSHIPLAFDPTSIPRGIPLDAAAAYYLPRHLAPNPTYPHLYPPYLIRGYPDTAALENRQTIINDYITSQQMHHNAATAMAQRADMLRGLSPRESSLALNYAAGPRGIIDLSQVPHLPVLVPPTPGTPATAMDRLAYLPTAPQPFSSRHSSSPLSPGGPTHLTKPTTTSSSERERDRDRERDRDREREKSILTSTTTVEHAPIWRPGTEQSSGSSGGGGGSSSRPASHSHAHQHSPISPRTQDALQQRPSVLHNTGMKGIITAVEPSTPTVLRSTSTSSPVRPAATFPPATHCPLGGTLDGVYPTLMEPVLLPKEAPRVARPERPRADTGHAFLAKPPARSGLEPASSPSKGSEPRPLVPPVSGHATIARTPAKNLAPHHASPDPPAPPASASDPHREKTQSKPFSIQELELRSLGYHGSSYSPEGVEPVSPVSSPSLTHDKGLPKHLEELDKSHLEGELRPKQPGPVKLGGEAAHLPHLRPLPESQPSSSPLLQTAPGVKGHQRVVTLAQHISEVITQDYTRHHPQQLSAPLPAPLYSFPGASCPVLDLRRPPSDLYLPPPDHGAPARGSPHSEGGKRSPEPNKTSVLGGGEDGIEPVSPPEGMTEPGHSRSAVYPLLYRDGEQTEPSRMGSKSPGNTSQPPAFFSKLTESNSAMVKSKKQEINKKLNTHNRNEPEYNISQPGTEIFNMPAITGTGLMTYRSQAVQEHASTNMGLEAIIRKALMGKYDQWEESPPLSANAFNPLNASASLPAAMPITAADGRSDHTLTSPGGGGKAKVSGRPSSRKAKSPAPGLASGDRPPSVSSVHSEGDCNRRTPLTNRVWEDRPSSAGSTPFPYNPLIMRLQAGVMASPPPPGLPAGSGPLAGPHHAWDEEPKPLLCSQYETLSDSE

[6] = target: T1, Eukaryotic translation initiation factor 2-alpha kinase 3 (Homo sapiens, UniProt Q9NZJ5); test: Dose response cell-based high-throughput screening assay to measure PERK inhibition. [Related pubchem assays: 1416 ]; assay type: functional
T1 sequence (Q9NZJ5 whole entry): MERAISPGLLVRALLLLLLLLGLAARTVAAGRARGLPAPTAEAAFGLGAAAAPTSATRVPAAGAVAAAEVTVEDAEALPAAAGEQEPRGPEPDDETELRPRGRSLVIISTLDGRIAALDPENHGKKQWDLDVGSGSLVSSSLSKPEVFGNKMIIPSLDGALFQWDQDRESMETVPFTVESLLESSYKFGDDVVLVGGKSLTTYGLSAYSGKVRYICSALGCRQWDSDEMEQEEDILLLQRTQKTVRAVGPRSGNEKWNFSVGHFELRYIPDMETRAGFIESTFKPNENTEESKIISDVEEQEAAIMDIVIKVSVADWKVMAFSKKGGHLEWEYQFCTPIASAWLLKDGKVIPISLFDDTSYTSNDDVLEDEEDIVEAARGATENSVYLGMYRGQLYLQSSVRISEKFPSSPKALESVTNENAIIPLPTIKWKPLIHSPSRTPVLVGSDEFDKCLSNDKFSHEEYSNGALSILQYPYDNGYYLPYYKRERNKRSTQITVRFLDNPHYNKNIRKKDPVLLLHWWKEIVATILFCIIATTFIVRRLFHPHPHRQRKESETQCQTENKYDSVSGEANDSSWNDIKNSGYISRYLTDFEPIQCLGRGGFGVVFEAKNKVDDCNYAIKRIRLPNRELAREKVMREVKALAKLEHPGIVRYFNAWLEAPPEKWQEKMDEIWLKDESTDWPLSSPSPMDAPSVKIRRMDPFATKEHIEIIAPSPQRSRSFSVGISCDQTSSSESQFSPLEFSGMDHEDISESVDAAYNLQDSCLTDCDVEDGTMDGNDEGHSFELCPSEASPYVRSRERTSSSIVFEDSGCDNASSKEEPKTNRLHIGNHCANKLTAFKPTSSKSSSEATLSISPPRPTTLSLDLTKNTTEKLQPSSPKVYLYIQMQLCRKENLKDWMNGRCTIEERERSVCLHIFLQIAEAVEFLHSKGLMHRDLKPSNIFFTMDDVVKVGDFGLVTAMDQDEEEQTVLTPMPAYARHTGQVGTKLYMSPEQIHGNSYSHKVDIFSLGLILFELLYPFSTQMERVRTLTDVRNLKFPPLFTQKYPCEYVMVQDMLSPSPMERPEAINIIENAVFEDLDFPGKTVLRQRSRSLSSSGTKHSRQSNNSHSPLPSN

[7] = target: T1, Eukaryotic translation initiation factor 2-alpha kinase 3; test: Counterscreen assay for PERK inhibitors: Dose response cell-based high throughput screening assay to measure inhibition of PERK at 6 hours. [Related pubchem assays: 1522, 1416 ]; assay type: functional
[8] = Luminescence Cell-Based Dose Confirmation HTS to Identify Activators of 5'UTR Stem-Loop Driven Alpha-Synuclein mRNA Translation in H4 Neuroglioblastoma Cells. [Related pubchem assays: 1829 (Project Summary), 1814 (Primary HTS)]; assay type: functional
[9] = Luminescence Cell-Based Dose Response HTS to Identify Activators of Luciferase Translation or Activity in H4 […] Cells. [Related pubchem assays: 1829 (Project Summary), 1814 (Primary HTS)]; assay type: functional
[10] = system: H4; test: Luminescence Cell-Based Dose Response HTS to Identify Activators of 5'UTR Stem-Loop Driven Prion Protein mRNA Translation in H4 Neuroglioblastoma Cells. [Related pubchem assays: 1829 (Project Summary), 1814 (Primary HTS)]; assay type: functional; settings: Homo sapiens
[11] = target: T2, Estrogen receptor (Homo sapiens, UniProt P03372); test: potentiators of ERα–SRC-1 coactivator binding, dose response, biochemical, TR-FRET, ERα LBD (AID 737)
T2 sequence (P03372 whole entry): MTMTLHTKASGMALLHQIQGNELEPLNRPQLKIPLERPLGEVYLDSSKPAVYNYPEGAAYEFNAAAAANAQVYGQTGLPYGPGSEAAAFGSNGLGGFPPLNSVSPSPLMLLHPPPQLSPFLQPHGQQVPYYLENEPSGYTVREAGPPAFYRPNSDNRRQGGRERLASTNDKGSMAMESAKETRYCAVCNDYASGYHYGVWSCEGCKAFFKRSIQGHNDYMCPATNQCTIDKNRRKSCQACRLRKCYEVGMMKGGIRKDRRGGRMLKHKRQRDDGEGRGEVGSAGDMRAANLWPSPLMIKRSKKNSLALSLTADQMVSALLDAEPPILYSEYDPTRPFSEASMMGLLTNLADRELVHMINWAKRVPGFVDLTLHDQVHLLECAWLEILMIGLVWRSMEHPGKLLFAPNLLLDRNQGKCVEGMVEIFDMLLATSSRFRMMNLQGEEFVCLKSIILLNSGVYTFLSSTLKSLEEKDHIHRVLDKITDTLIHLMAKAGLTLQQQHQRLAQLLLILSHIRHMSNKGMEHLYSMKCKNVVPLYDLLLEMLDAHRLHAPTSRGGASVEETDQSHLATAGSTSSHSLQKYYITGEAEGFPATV

[12] = target: DNA dC->dU-editing enzyme APOBEC-3A (Homo sapiens, UniProt P31941); test: Dose Response confirmation of small molecule APOBEC3A DNA Deaminase Inhibitors via a fluorescence-based single-stranded DNA deaminase assay. [Related pubchem assays (depositor defined):AID493011, AID493024]; assay type: functional
Chain of DNA dC->dU-editing enzyme APOBEC-3A (P31941 whole entry): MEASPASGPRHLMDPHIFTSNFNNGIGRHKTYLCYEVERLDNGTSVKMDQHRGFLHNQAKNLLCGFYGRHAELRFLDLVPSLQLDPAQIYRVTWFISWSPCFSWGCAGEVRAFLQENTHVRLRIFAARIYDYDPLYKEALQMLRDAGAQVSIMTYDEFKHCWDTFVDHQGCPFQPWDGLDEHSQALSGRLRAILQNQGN

[13] = target: DNA dC->dU-editing enzyme APOBEC-3G (Homo sapiens, UniProt Q9HC16); assay type: functional;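 also: Dose-response counterscreen measuring inhibition of APOBEC3G DNA deaminase activity, run while confirming APOBEC3A inhibitors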
Chain of DNA dC->dU-editing enzyme APOBEC-3G (Q9HC16 whole entry): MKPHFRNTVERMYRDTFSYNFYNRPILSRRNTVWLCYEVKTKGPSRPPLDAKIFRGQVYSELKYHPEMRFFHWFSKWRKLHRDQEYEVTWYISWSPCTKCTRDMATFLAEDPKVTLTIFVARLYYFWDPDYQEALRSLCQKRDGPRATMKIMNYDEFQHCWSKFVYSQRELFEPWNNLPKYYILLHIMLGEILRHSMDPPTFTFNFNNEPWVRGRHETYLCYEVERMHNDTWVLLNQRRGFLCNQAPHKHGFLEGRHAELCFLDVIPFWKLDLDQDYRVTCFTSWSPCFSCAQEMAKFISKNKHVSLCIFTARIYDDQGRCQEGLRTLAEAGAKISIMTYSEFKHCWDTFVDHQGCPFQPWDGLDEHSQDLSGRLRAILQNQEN

Chain of Cytochrome P450 3A4 (P08684 whole entry): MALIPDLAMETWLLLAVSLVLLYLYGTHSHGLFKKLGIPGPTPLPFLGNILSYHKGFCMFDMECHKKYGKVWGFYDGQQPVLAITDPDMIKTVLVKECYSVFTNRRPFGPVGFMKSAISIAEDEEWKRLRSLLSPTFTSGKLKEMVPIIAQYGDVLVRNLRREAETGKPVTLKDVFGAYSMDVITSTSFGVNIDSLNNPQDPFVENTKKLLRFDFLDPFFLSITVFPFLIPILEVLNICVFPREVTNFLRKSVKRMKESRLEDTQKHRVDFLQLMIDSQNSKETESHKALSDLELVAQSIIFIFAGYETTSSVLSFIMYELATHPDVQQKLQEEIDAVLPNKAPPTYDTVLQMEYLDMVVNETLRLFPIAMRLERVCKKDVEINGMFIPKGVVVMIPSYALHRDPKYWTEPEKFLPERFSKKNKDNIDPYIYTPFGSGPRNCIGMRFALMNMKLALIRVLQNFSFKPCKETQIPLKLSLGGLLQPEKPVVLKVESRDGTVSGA

In the case of `C=CCSc1nc(O)c2sc3nc(C)cc(C)c3c2n1`, the IC50 [1] is reported as 25.4 µM (active) and the AC50 [2] is reported as 11.2 µM (inconclusive).
For `CN(Cc1ccccc1)C(=O)C1CCCN(Cc2ccccc2)C1` (centres undefined), the AC50 [3] was 5.07 µM (active).
In the case of `COCCCN1C(=O)C(O)=C(C(=O)c2ccc(C)o2)C1c1cccc(Br)c1` (centres undefined), the IC50 [4] is reported as > 39.8 µM (not active) and the IC50 [5] is reported as 11.1 µM (not active).
For `O=c1oc(-c2cccs2)nc2scc(-c3cccs3)c12`, the IC50 [1] was 24.2 µM (active).
With `C/C(=N/N=C1\SCC(=O)N1c1ccccc1)c1ccc(C)cc1` the EC50 [6] was > 55.7 µM (not active) and the EC50 [7] was > 55.7 µM (not active).
For `CCn1c(SCC(=O)Nc2cccc(F)c2)nnc1-c1cc2cc(Br)ccc2o1`, the EC50 [8] was > 120 µM (not active), the EC50 [9] was 10.8 µM (active) and the EC50 [10] was > 120 µM (not active). For the same molecule, the EC50 [11] was 11.1 µM (active), the IC50 [12] was 2.82 µM (active) and the IC50 [13] was 5.3 µM (active).
